Measurements taken from patent US20260215422A1, “HERBICIDAL COMPOSITIONS” (SYNGENTA CROP PROTECTION AG, priority 2022, published 2026).

Key:
S129 = experiment: Additional testing of Group 12 herbicides with other HPPD inhibitor herbicides (Table 7), Colby; type: in vivo, Amaranthus sp. (AMAPA); conditions: for Observed Product 1-(Group 12): Group 12 herbicide alone 15.8 g/ha
Source text: (§1) When active ingredients are combined, the activity to be expected (E) for any given active ingredient combination obeys the so-called Colby Formula and can be calculated as follows (Colby, S. R., Calculating synergistic and antagonistic responses of herbicide combination, Weeds, Vol. 15, pages 20-22; 1967): • ppm=milligrams of active ingredient (a.i.) per liter • X=% action by first active ingredient using p ppm of the active ingredient • Y=% action by second active ingredient using q ppm of the active ingredient.
(§2) According to Colby, the expected action of active ingredients A+B using p+q ppm of active ingredient is represented by the following formula:
(§3) [formula] • If the action actually observed (O) is greater than the expected action E then the action of the combination is super-additive, i.e. there is a synergistic effect. In mathematical terms, synergism corresponds to a positive value for the difference of (O-E). In the case of purely complementary addition of activities (expected activity), said difference (O-E) is zero. A negative value of said difference (O-E) signals a loss of activity compared to the expected activity.
(§4) Additional testing within the scope of disclosure was performed using other HPPD inhibitor herbicides and Group 12 herbicides.

RW478-16 = experiment: as above; type: in vivo, Amaranthus sp. (AMAPA); conditions: for Observed Product 1-(Group 12): Group 12 herbicide alone 15.8 g/ha
Source text: as §1, §2, §3, §4

[1] = test system: HPPD-resistant (RW478-16) Amaranthus sp. (AMAPA); experiment: Pre-emergent synergy test of DFF with MST + BIR (Tables 1-3), Colby; type: in vivo; conditions: pre-emergence, 528 h, 22 days after treatment, read-out: Activity (% control) (RW478-16)
Source text: as §1, §2, §3
(§5) Synergy was further tested for in sensitive (S-129) and HPPD-resistant (RW478-16) Amaranthus sp. (AMAPA) in pre-emergent tests according to the treatments in Table 1 below.
(§6) Dose responses rates were calculated for the treatments at 22 days after treatment which are provided in FIGS. 3 and 4, and further summarized in Table 2.

[2] = test system: sensitive (S-129) Amaranthus sp. (AMAPA); experiment: as above; type: in vivo; conditions: pre-emergence, 528 h, 22 days after treatment, read-out: Activity (% control) (S-129)
Source text: as §1, §2, §3, §5, §6

HPPD resistant AMATA = experiment: Field trial of dent corn, control 34 days after application; type: in vivo, common waterhemp, Amaranthus rudis Sauer; conditions: 70 g ai/ha diflufenican
Procedure: Diflufenican, was already very active on HPPD-R AMAPA providing 98% control alone at 35 g ai/ha, the rate used in mixture with MST+BIR making it difficult to determine if there was synergy between the herbicides. Nevertheless, additional data regarding diflufenican and MST+BIR was obtained during field trials of dent corn.
During the field trial, HPPD resistant AMATA (common waterhemp, Amaranthus rudis Sauer) was tested as follows: • 1) 70 g ai/ha diflufenican—providing 55% control • 2) 202 g ai/ha MST+50 g ai/ha BIR—providing 30% control • 3) 70 g ai/ha diflufenican+202 g ai/ha MST+50 g ai/ha BIR—providing 92% control.
The results were collected 34 days after application. The inclusion of a Group 12 herbicide with at least one HPPD-inhibitor, specifically MST+BIR, provided surprising control of HPPD-resistant weeds.

Group 27 resistant AMAPA = experiment: Greenhouse preemergence trial, % control at 29 days after application; type: in vivo, Palmer amaranth
[3] = test system: HPPD-resistant (RW478-16) Amaranthus sp. (AMAPA); experiment: Pre-emergent synergy test of PIC with MST + BIR (Tables 4-6), Colby; type: in vivo; conditions: 22 days after treatment
Source text: as §1, §2, §3, §5
(§7) Similar tests were performed with picolinafen (PIC) and mesotrione+bicyclopyrone (MST+BIR), as summarized by Table 4.

[4] = test system: sensitive (S-129) Amaranthus sp. (AMAPA); experiment: as above; type: in vivo; conditions: 22 days after treatment
Source text: as §1, §2, §3, §5, §7

[5] = (IFT 12.3) g/ha without Group 12
[6] = (MST 25.3) g/ha without Group 12
[7] = (BIR 6.3) g/ha without Group 12

Molecule: CCC(Oc1ccc(F)c(C(F)(F)F)c1)C(=O)NCc1ccccc1 (centres unmarked) [BFB, beflubutamid]
- Observed Product 1-(Group 12) (S129): 67%
- Observed Product 1-(Group 12) (RW478-16): 37%

Molecule: O=C(Nc1ccc(F)cc1F)c1cccnc1Oc1cccc(C(F)(F)F)c1 [DFF, diflufenican]
- inhibition at 1.58 g/ha ([1]; DFF 1.58 g ai/ha alone): 77%
- inhibition at 2.11 g/ha ([1]; DFF 2.11 g ai/ha alone): 53%
- inhibition at 3.16 g/ha ([1]; DFF 3.16 g ai/ha alone): 45%
- inhibition at 7.9 g/ha ([1]; DFF 7.9 g ai/ha alone): 22%
- inhibition at 15.8 g/ha ([1]; DFF 15.8 g ai/ha alone): 18%
- inhibition at 31.6 g/ha ([1]; DFF 31.6 g ai/ha alone): 3%
- inhibition at 1.58 g/ha ([2]; DFF 1.58 g ai/ha alone): 100%
- inhibition at 2.11 g/ha ([2]; DFF 2.11 g ai/ha alone): 94%
- inhibition at 3.16 g/ha ([2]; DFF 3.16 g ai/ha alone): 72%
- inhibition at 7.9 g/ha ([2]; DFF 7.9 g ai/ha alone): 23%
- inhibition at 15.8 g/ha ([2]; DFF 15.8 g ai/ha alone): 10%
- inhibition at 31.6 g/ha ([2]; DFF 31.6 g ai/ha alone): 13%
- Observed Product 1-(Group 12) (S129): 99%
- Observed Product 1-(Group 12) (RW478-16): 70%
- % control of HPPD resistant AMATA (HPPD resistant AMATA): 55%
- % control of HPPD-R AMAPA (Group 27 resistant AMAPA; alone at 35 g ai/ha): 98%

Molecule: O=C1C(Cl)C(CCl)CN1c1cccc(C(F)(F)F)c1 (centres unmarked) [FLU, flurochloridone]
- Observed Product 1-(Group 12) (S129): 57%
- Observed Product 1-(Group 12) (RW478-16): 27%

Molecule: CS(=O)(=O)c1cc(C(F)(F)F)ccc1C(=O)c1cnoc1C1CC1 [IFT, isoxaflutole]
- Observed Product 2-(HPPDs) (S129; [5]): 98%
- Observed Product 2-(HPPDs) (RW478-16; [5]): 37%

Molecule: CS(=O)(=O)c1ccc(C(=O)C2C(=O)CCCC2=O)c([N+](=O)[O-])c1 [MST, mesotrione]
- Observed Product 2-(HPPDs) (S129; [6]): 100%
- Observed Product 2-(HPPDs) (RW478-16; [6]): 28%

Molecule: O=C(Nc1ccc(F)cc1)c1cccc(Oc2cccc(C(F)(F)F)c2)n1 [PIC, picolinafen]
- Activity (% control) (RW478-16) ([3]; PIC 1.58 g ai/ha alone): 0%
- Activity (% control) (RW478-16) ([3]; PIC 2.11 g ai/ha alone): 7%
- Activity (% control) (RW478-16) ([3]; PIC 3.16 g ai/ha alone): 10%
- Activity (% control) (RW478-16) ([3]; PIC 7.9 g ai/ha alone): 10%
- Activity (% control) (RW478-16) ([3]; PIC 15.8 g ai/ha alone): 40%
- Activity (% control) (RW478-16) ([3]; PIC 31.6 g ai/ha alone): 53%
- Activity (% control) (S-129) ([4]; PIC 1.58 g ai/ha alone): 10%
- Activity (% control) (S-129) ([4]; PIC 2.11 g ai/ha alone): 22%
- Activity (% control) (S-129) ([4]; PIC 3.16 g ai/ha alone): 17%
- Activity (% control) (S-129) ([4]; PIC 7.9 g ai/ha alone): 30%
- Activity (% control) (S-129) ([4]; PIC 15.8 g ai/ha alone): 53%
- Activity (% control) (S-129) ([4]; PIC 31.6 g ai/ha alone): 72%
- Observed Product 1-(Group 12) (S129): 77%
- Observed Product 1-(Group 12) (RW478-16): 28%
- control of HPPD-Resistant AMAPA (Group 27 resistant AMAPA; Picolinafen 35 g ai/ha alone): did not adequately control

Molecule: bicyclopyrone [BIR]
- Observed Product 2-(HPPDs) (S129; [7]): 57%
- Observed Product 2-(HPPDs) (RW478-16; [7]): 20%
